± gives the expanded uncertainty stated by the source.
Assays:
[1] = Crystal; DTA
[2] = Molar enthalpy of transition or fusion; settings: Crystal; DSC

| SMILES | Normal melting temperature [1] [°C] | Molar enthalpy of transition or fusion [2] [kcal/mol] |
| --- | --- | --- |
| Brc1ccc(Br)c(Br)c1 [1,2,4-tribromobenzene] | 44 ± 1.1 | 4.28 ± 0.43 |
| Brc1ccc(Br)cc1 [1,4-dibromobenzene] | 84.6 ± 1.1 | 4.45 ± 0.454 |
| Brc1cc(Br)c(Br)cc1Br [1,2,4,5-tetrabromobenzene] | 181.4 ± 1.1 | 5.83 ± 0.598 |
| Brc1c(Br)c(Br)c(Br)c(Br)c1Br [hexabromobenzene] | 325.6 ± 1.1 | 5.88 ± 0.598 |
